# In patent US9944986B2, “Therapeutic targets for Alzheimer's disease” (The University of Birmingham, priority 2012, dated 2018):
# Experiments:
# brain [1] = test: T2 weighted MRI of brain after mTOR inhibition/activation; type: in vivo; details: SD rats; rapamycin 0.2 mg/kg i.p., ketamine 30 mg/kg i.p.; n=3
# From the text: (§1) There were three animals (n=3) in each group. Animals were sacrificed and the brain removed and frozen for imaging studies.
# brain [2] = test: MSI imaging of brain sections (phosphatidylcholines, choline, creatine); type: in vivo; details: SD rats, rapamycin 0.2 mg/kg i.p., ketamine 30 mg/kg i.p.
# Protocol: as §1
# All MSI imaging experiments were performed on a Bruker ultrafleXtreme TOF/TOF mass spectrometer. For matrix evaluation, 4 serial sections of thickness 10 μm from sham control brain S2 were acquired using a Leica CM 1850 Cryostat and subsequently thaw mounted onto an ITO coated glass slide. Each section in turn was coated with 15 mL of 20 mg mL^−1 of CHCA in CH3OH, 0.1% TFA) using an artist airbrush while the remaining 2 sections were covered. Data were collected over the mass range m/z 60-1400. MSI experiments of a single section from each group (Rapa, Ket and Control) were conducted. […]. Images were acquired with a pixel size of 100 μm×100 μm.
compound,measurement,setting,value
CNC1(c2ccccc2Cl)CCCCC1=O (stereo not shown) [ketamine],T2 weighted MRI images versus control animals,brain [1],clear differences in the T2 weighted MRI images
same,phosphatidylcholine species in the brain (ion images) relative to control,brain [2],clear differences induced by mTOR inhibition or activation
same,choline levels in the brain,brain [2]; vs control,measureable changes
same,creatine levels in the brain,brain [2]; vs control,measureable changes
